From patent US20140051729A1, “COMPOSITIONS AND METHODS FOR TREATING DEGENERATIVE MUSCLE CONDITIONS” (University of Washington, priority 2011, published 2014) come the findings set out here.

One assay deals with Akt/mTOR signaling. In words: Western blot of uninjured TA muscle of mdx mice after intramuscular S1P. The class given is in vivo, mouse. The following applies: three days of daily S1P injections, vs vehicle TA. How it is done:
To discern if the S1P dependent increase in mdx muscle fiber size was due to hypertrophy, the activation of Akt/mTOR signaling was examined. S1P induced hypertrophy has been described in cultured cardiomyocytes, which was accompanied by activation of Akt and S6 kinase. In turn, Akt and mTOR signaling via S6 kinase, an activator of ribosomal S6 implicated in protein synthesis, has been described as sufficient to induce skeletal muscle hypertrophy. Therefore it was determined if the increase in muscle fibers by S1P was mediated by Akt/mTOR signaling. Since THI induces a S1P increase throughout the body, S1P was administered directly into muscle in mdx mice and levels of activated/phosphorylated Akt, mTOR, and S6 were measured. S1P was injected directly into uninjured TA muscle to measure potential effects on these pathways in the absence of injury. As before, S1P was injected into left TAs and vehicle into right TAs of the same animals (FIG. 6a). […]
Tissue for western blot analysis was snap frozen in liquid nitrogen and subsequently homogenized. […] Protein extracts were separated using BioRad Tris-HCl ready gels 4-20% linear gradient and transferred to polyvinylidene difluoride (PVDF) membranes with a wet transfer system (BioRad). […] The signals were detected using an enhanced chemiluminescence kit (Millipore) and CL-XPosure Films (Thermo Scientific) were analyzed using ImageJ.
(In general: A western blot detects proteins with antibodies after separation by electrophoresis.)

Another assay relates to A/J mice. As to the kind of experiment: S1P in dysferlinopathy model after CTX injury (picrosirius red fibrosis). The conditions noted are these: A/J mice 9 month old, S1P intramuscular daily three days, 6 days post injury, vs vehicle. The class given is in vivo, mouse. How it is done: The A/J mouse strain (JAX Mice, Bar Habor, Me.) lacks dysferlin and is a model for dysferlinopathy. The effects of S1P treatment of A/J mice was examined following CTX induced acute injury. CTX was applied to both TA muscles (2× male, 2× female, 9 month old), then S1P was injected intramuscularly into left TAs and a vehicle control (saline) in right TAs daily for the first three days following CTX injury. The TAs were harvested and examined for muscle fibrosis (picrosirius red staining) 6 days post injury.
Right and left TAs of three, 3 month old male mdx4cv:Myf5nlacZ/+ were injected with […] cardiotoxin (Calbiochem) in PBS from Naja nigrcollis. For the dysferlinopathy study, right and left TAs of 9 month old male and female A/J mice (JAX Mice, Bar Harbor, Me.) were injected with […] cardiotoxin (Calbiochem) in PBS from Naja nigrcollis. S1P (Enzo; Calbiochem) preparation was done according to manufacturer's instructions. Briefly, S1P was dissolved in methanol (0.5 mg/ml) and aliquoted, then the solvent was evaporated with a stream of nitrogen to deposit a thin film on the inside of the tube. […]
All mouse muscles were frozen directly in OCT with liquid nitrogen cooled in isopentane and sections of 8 μm thickness were obtained. […] Staining quantifications were all done using ImageJ v1.40 (Wayne Rasband, NIH) cell counter plugin (Kurt De Vos, University of Sheffield). […]

In another assay the test system is mdx:myf5^nlacz/+ mice. In words: Intramuscular S1P after CTX injury in mdx:Myf5nlacZ/+ mice (x-gal, myogenin, eMyHC staining). The class given is in vivo, mouse. On the procedure:
S1P is involved in muscle satellite cell turnover, myoblast differentiation, and muscle regeneration in non-diseased mice. […] The effects of S1P treatment were examined following CTX induced acute injury in dystrophic muscles. To identify myogenic cells, mdx:myf5^nlacz/+ mice were used carrying the nuclear lacZ reporter driven by the endogenous Myf5 gene. CTX was applied to both TA muscles (n=3 mice, 3 month-old mdx:myf5^nlacz/+ males), then S1P was injected intramuscularly into left TAs and a vehicle control into right TAs daily for the first three days following injury. TAs were harvested on day 4 post injury for analysis of β-galactosidase positive (Myf5+) nuclei.
Right and left TAs of three, 3 month old male mdx4cv:Myf5nlacZ/+ were injected with […] cardiotoxin (Calbiochem) in PBS from Naja nigrcollis. For the dysferlinopathy study, right and left TAs of 9 month old male and female A/J mice (JAX Mice, Bar Harbor, Me.) were injected with […] cardiotoxin (Calbiochem) in PBS from Naja nigrcollis. S1P (Enzo; Calbiochem) preparation was done according to manufacturer's instructions. Briefly, S1P was dissolved in methanol (0.5 mg/ml) and aliquoted, then the solvent was evaporated with a stream of nitrogen to deposit a thin film on the inside of the tube. Aliquots were dissolved with 4 mg/ml BSA (fatty acid free) to make 500 uM stocks. Directly following cardiotoxin injection, 500 uM S1P in PBS with 4 mg/ml BSA was injected in left TAs (20 ul), daily until day 3 post-injury at which time animals were euthanized and muscles were harvested for freezing. Right TAs were injected with an equal volume of PBS with 4 mg/ml BSA as vehicle controls. In a separate experiment TAs of four 2.5 month-old female mdx4cv were injected with S1P or vehicle under the same conditions stated above, in the absence of injury.
All mouse muscles were frozen directly in OCT with liquid nitrogen cooled in isopentane and sections of 8 μm thickness were obtained. Tissue for x-gal staining, was fixed for 10 min with 2% formaldehyde/0.2% glutaraldehyde and incubated overnight at 37° C. with staining buffer (PBS with 1 mg/ml x-gal, 5 mM potassium ferricyanide, 5 mM potassium ferrocyanide, and 2 mM […] (all from Fisher). Oil Red-O and Picrosirius red staining were done following established protocols. For eMyHC staining, tissue was first fixed with 2% formaldehyde for 5 min, treated with streptavidin/avidin blocking kit (Vector labs), and blocked with IgG block from M.O.M kit (Vector Labs) for 5 hrs at 4° C. Following blockade, concentrated mouse anti-eMyHC (clone F1.652 received at 357 μg/ml IgG) obtained from the developmental studies hybridoma bank (DHSB, University of Iowa) was administered at 1:400 dilution, overnight at 4° C. The remainder of the staining was done following mouse-on-mouse (M.O.M) kit staining instructions. For laminin staining tissue was also fixed with 2% formaldehyde for 5 min, and then treated with polyclonal rabbit anti-laminin (Sigma) for 1 hr at a 1:400 dilution in PBS+1% BSA. Following washes, Alexa Fluor 488 conjugated goat anti-rabbit IgG (Invitrogen) was administered at 1:800 dilution for 1 hr. Controls omitting the primary antibody were included with all staining. Staining quantifications were all done using ImageJ v1.40 (Wayne Rasband, NIH) cell counter plugin (Kurt De Vos, University of Sheffield). Calculations, statistics, and graphs were generated with Microsoft Excel. […]

Assay [1] has as its system dystrophic flies (w; +/+; Dys^det1/Dys^det1). As to the kind of experiment: Myofibril analysis of muscle wasting in dystrophic flies fed S1P promoting agents. The format is in vivo, Drosophila. The conditions noted are these: 217 μM in feed, three feeding cycles. On the procedure: The effect of THI, a derivative of THI ((E)-1-(4-((1R,2S,3R)-1,2,3,4-tetrahydroxybutyl)-1H-imidazol-2-yl)-ethanone oxime) (“THI-oxime”), and a sphingosine analog (FTY720) on muscle wasting in dystrophic Drosopila flies was observed. Before feeding, 4 day old dystrophic flies (genotype: w; +/+; Dys^det1/Dys^det1) were placed in empty vials and starved for 6 hours. The flies were then provided access to one of a solution of 0.05 mg/mL (217 μM) 2-Acetyl-4(5)-tetrahydroxybutyl Imidazole (THI), or 217 μM FTY720, or 217 μM THI-oxime, in 5% light corn syrup in water for 16-18 hrs. After feeding, the flies were placed in new yeasted vials for 6-7 hrs. Flies were then transferred to empty vials with access to a 217 μM solution of THI, FTY720 or THI-oxime in a 5% light corn syrup in water for 16-18 hrs. This feeding cycle was repeated for a third time. After feeding for three cycles, the flies were placed in new yeasted vials. The 7-day old flies that had been administered the THI-oxime were analyzed immediately after the last feeding. The flies that has been administered THI and FTY720 were analyzed as 10-day old flies, three days after the last feeding with THI and FTY720.
Myofibril immunochemistry analysis was performed as disclosed herein. For each treatment group, 5 flies were analyzed, and 3 muscles per fly and 2 myofibrils per muscle were analyzed. Two tailed Student's t test was used to evaluate significance.
Flies were dipped in 95% EtOH and then dissected in 1×PBS (pH 7.4). Heads and abdomens were removed, and the thoraxes opened. Samples were stained using a modified ovary staining protocol 3. Samples were then fixed in 5% paraformaldehyde (Electron Microscopy Sciences) for 1 hour, rinsed in PBT (PBS/0.2% Triton X-100 v/v) 4 times, and then blocked for 1 hour in PBTB (PBT, 0.4% BSA w/v, 5% Normal Goat Serum v/v) at room temperature. […] For each genotype, 4-5 flies were analyzed, and 6-7 muscles per fly were analyzed.

A further assay concerns mdx mice. As to the kind of experiment: EDL muscle myography in mdx mice. The conditions noted are these: THI-oxime IP twice-daily two weeks, 75 ug per day, at 120 Hz; vehicle 58 at 100 Hz. The class given is in vivo, mouse. How it is done:
The effect of THI administration on muscle function and recovery in mdx mice was analyzed. The mice were injected intraperitoneally with THI in PBS or vehicle alone (PBS) twice-daily for two weeks. Total amount of THI delivered per day was 75 ug. Extensor digitorum longus (EDL) muscles were excised from the mice and equilibrated in ringer's solution with 95% O2/5% CO2 for a minimum of 15 minutes prior to stimulation. Myography was conducted using a DMT 820S myograph and data was recorded using PowerLab 4/30 acquisition system with LabChart Pro software v7.3.1 (both from ADI instruments, Colorado Springs, Colo.). Stimulations were conducted with a Grass Instrument S88X system (Grass Technologies, West Warwick, R.I.). Muscles were stimulated to establish optimal fiber length (Lf) and voltage at which maximum tetanic force was measured at 120 Hz within a 450 ms duration.
Specific force was calculated as previously described in Gregorevic P. et al. (Gregorevic P. et al., Muscle Nerve. 2004 September; 30(3):295-304, PMID#15318340) by normalizing to whole muscle cross-sectional area (CSA). CSA is the quotient of […] muscle mass over the optimal muscle length (Lo) which is defined as the product of muscle fiber length (Lf) with the fiber length ratio (0.44 for EDL) and mammalian muscle density (1.06).
Muscle recovery was measured after muscle was fatigued with stimulation over 6 minutes. […] Recovery was determined by examining muscle force at 5, 10, and 15 minutes after stimulation. […] Therefore, the administration of THI improved muscle recovery and function in dystrophic mice.
The effect of THI-oxime administration on muscle function and recovery in mdx mice was analyzed. The mice were injected intraperitoneally with THI-oxime (n=3) or PBS vehicle alone (n=4) twice-daily for two weeks and then analyzed between 1-4 days following the final day of injection. Total amount of THI-oxime delivered per day was 75 ug. Prior to euthanasia, the animals were anesthetized with 0.5 mg/g weight avertin diluted in PBS. EDL muscles were excised from the mice and equilibrated in ringer's solution (120 mM NaCl, 4.7 mM KCl, 3.15 mM MgCl2, 1.3 mM NaH2PO4, 25 mM NaHCO3, 11 mM Glucose, 1.25 mM CaCl2, pH 7.2) with 95% O2/5% CO2 for a minimum of 15 minutes prior to stimulation. All functional experiments were carried out with buffer solutions at 25° C. under constant oxygenation. Myography was conducted using a DMT 820S myograph and data was recorded using PowerLab 4/30 acquisition system with LabChart Pro software v7.3.1 (both from ADI instruments, Colorado Springs, Colo.). […] Muscles were stimulated to establish optimal fiber length (Lf) and voltage at which maximum tetanic force was measured at 120 Hz within a 450 ms duration. […]

For the compound `CCCCCCCCCCCCC/C=C/[C@@H](O)[C@@H](N)COP(=O)(O)O` [S1P, Sphingosine-1-phosphate], in the assay with Akt/mTOR signaling, the “levels of S6 and phosphorylated S6” value is “significantly increased”; the “levels of phosphorylated Akt and mTOR” value is recorded as “not significantly higher”. The “average percentage of fibrosis in CTX injured TA muscles” value with A/J mice is given as “significantly decreased”. Besides, in the assay with mdx:myf5^nlacz/+ mice (S1P intramuscular daily for three days, TAs harvested day 4, vs vehicle TA), the “numbers of Myf5+ nuclei in areas with severe CTX damage” value is given as “four-fold increase”. Also, the “Myf5+ cells for the entire cross-sectional area of treated TA” value in the assay on mdx:myf5^nlacz/+ mice (S1P intramuscular daily for three days, day 4, vs vehicle TA) is reported as “gross increase”. In the assay with mdx:myf5^nlacz/+ mice (S1P treated TAs vs vehicle), the “increase in the number of eMyHC+ fibers” value is listed as 3.6 fold and the “size of regenerating myofibers (minimum diameter of largest eMyHC+ fibers)” value is recorded as “significantly greater”. In addition, in the assay on mdx:myf5^nlacz/+ mice (S1P treated vs vehicle treated CTX injured TAs), the “number of myogenin positive nuclei” value is listed as “slightly higher but not significantly different”.

`C/C(=N\O)c1nc([C@@H](O)[C@H](O)[C@H](O)CO)c[nH]1` [THI-oxime, (E)-1-(4-((1R,2S,3R)-1,2,3,4-tetrahydroxybutyl)-1H-imidazol-2-yl)-ethanone oxime]: the wild-type myofibrils in assay [1] (7-day old flies, negative control 39.05%) was 67.62%. For the same compound, the “maximum specific force of EDL muscle” value in the assay on mdx mice was determined as 73 KN/m^2.

Consider `CCCCCCCCc1ccc(CCC(N)(CO)CO)cc1` [FTY720, 2-amino-2-[2-(4-octylphenyl)ethyl]propane-1,3-diol], for which the wild-type myofibrils in assay [1] (10-day old flies, three days after last feeding) worked out at 73.83%.
